Experiments:
Assay in all cases: CDKi biochemical assay (TR-FRET, phosphorylation of S780 on RB1 peptide)
CDK2/CyclinE1 = CDK2/CyclinE1 (Homo sapiens, UniProt P24941); details: CDK2/CyclinE1 100 pM, 1 mM ATP, 60 min at 25° C.
Procedure: (§1) Biochemical assays measured the inhibitory effects of compounds in this disclosure on the enzymatic activity of CDK enzyme in complex with Cyclin protein partner by phosphorylation of Ser-780 (S780) on retinoblastoma protein peptide (RB1) in the presence of 1 mM adenosime-5-triphosphate (ATP) and varying concentration of test compound in 20 mM 2-[4-(2-hydroxyethyl)paperazin-1-yl] ethanesulfonic acid (HEPES), pH 7.5, 10 mM MgCl2, 1 mM dithiothreitol (DTT), 0.01% bovine serum albumin (BSA), 0.005% Tween 20. Total Reaction volume of 10 μL proceeded for 60 minutes at room temperature (25° C.) and were quenched with 5 μL of 200 mM 2′,2″,2′″-(Ethane-1,2-diyldinitrilo)tetraacetic acid (EDTA) pH 8.0 before addition of 5 μL detection solution containing 100 nM fluorophore conjugate streptavidin allophycocyanin (SA-APC), 2 nM Europium labelled Anti-p-RB(S780)-K (Perkin Elmer, 64CUSKAY), 50 mM HEPES, pH 7.5, 400 mM potassium fluoride (KF), 0.1% BSA, and 0.01% Tween-20. Phosphorylation of S780 on RB1 peptide (His-MBP-RB1[773-924]-SEQ ID NO. 9) was detected by TR-FRET after 3 hour incubation with detection solution. Percent phosphorylation activity was plotted against log concentration of compound to generate an apparent ICSO. The following CDK enzyme in complex with different cyclin proteins and protein peptide substrate were used in these assays: • CDK1/CyclinB1, Avi-tag, 10 pM used in the assay • CDK2/CyclinE1, Avi-tag, 100 pM used in the assay • CDK4/cyclinD1, Avi-tag, 20 pM used in the assay • CDK6/cyclinD3, Avi-tag, 10 pM used in the assay • His-MBP-RB1[773-924], Avi-tag, 200 nM used in the assay
(§2) The avi-tag is a C-terminal fusion on the CDK1/2/4/6 sequence in each of these two-protein complexes. The known avi-tag sequence, […] (SEQ ID NO. 10), is a substrate for E. coli biotin ligase BirA, which covalently attaches a biotin molecule to the e-amino group of the lysine in that sequence. The avi-tag is attached with an 8 amino-acid linker sequence GGSGGGGS (SEQ ID NO. 11), resulting in the full C-terminal fusion
(§3) Recombinant proteins were generated as N-terminal fusions of 9× His tag—E. coli Maltose Binding Protein (MBP), with or without a C-terminal Avi-tag.^1 CDK2 and His-MBP-RB1[773-924]-c-avi were expressed in E. coli while the remainder were expressed in Sf21 insect cells. Genes were synthesized commercially (GeneArt and Twist Bioscience) using codon frequencies appropriate to the respective organisms and proprietary codon optimization strategies, and inserted into pET 24 (E. coli) or pDEST8 (insect) vectors already containing the 9× His-MBP tag using standard methods of PCR and Gibson Assembly.^2 E. coli expression was performed by auto-induction overnight at 18 or 21 C. For insect cell expression, bacmids and viruses were created,^3 then used to synchronously infect Sf21 insect cells with harvest at 40-48 hrs., per standard protocols.^4
(§4) For CDK2/Cyclin E and CDK1/Cyclin B, the CDK and Cyclin proteins were expressed separately, lysed by sonication and clarified by centrifugation. The fusion proteins were each separately purified by immobilized metal ion affinity chromatography (IMAC) (5 mL HisTrap, Cytiva) and Superdex 200 26/60 (Cytiva) size-exclusion and complexed in vitro (1-3 hrs incubation at room temperature) prior to tag cleavage by recombinant his-tagged Tobacco Etch Virus protease or his-tagged Human rhinovirus 3C protease, as appropriate. The cleaved complex is further purified by Superdex 75 26/60 (Cytiva) size-exclusion followed by reverse-IMAC, in which the complex is in the column flow-through and residual His-MBP and his-tagged proteases are retained. The final complex is concentrated as desired by centrifugal concentration (Amicon Ultra 10,000 Da MWCO 15 mL concentrators, Millipore).
For E. coli expressed CDK2 and His-MBP-RB1[773-924]-c-avi, the proteins were biotinylated in vitro after the first IMAC step.^1
(§5) For the is-MBP-RB1[773-924]-c-avi, the protein was lysed by sonication and clarified by centrifugation. […]

CDK1/CyclinB1 = CDK1/CyclinB1 (Homo sapiens, UniProt P06493); details: CDK1/CyclinB1 10 pM, 1 mM ATP, 60 min at 25° C.
Procedure: as §1, §2, §3, §4, §5

CDK4/cyclinD1 = CDK4/cyclinD1 (Homo sapiens, UniProt P11802); details: CDK4/cyclinD1 20 pM, 1 mM ATP, 60 min at 25° C.
Procedure: as §1, §2, §3
(§6) For CDK4/Cyclin D1 and CDK6/Cyclin D3, the complexes were expressed by simultaneous co-infection of insect cells by three separate viruses including one expressing untagged E. coli BirA. The expression media is supplemented with 50 uM d-biotin. The resulting protein complexes purified similarly. After lysis and clarification, the complex is purified by IMAC, Superdex 200 26/60 size exclusion, tag cleavage by human rhinovirus 3C protease, Superdex 75 26/60 size exclusion and reverse IMAC. BirA is typically not retained on the first IMAC, and excess CDK or Cyclin monomer is separated on the Superdex 200 size exclusion. Cleaved His-MBP and remaining monomer are removed by the Superdex 75 size exclusion and the reverse IMAC step. Final concentration by centrifugal concentrators as described above.
as §5

CDK6/cyclinD3 = CDK6/cyclinD3 (Homo sapiens, UniProt Q00534); details: CDK6/cyclinD3 10 pM, 1 mM ATP, 60 min at 25° C.
Procedure: as §1, §2, §3, §6, §5

SMILES | IC50 (CDK2/CyclinE1) | IC50 (CDK1/CyclinB1) | IC50 (CDK4/cyclinD1) | IC50 (CDK6/cyclinD3)
O=C1N([C@@H]2CCC[C@@H](O)C2)c2nc(Nc3c[nH]nc3C3CCCCO3)ncc2C12CC2 (stereo partly drawn) [Example 10, 7′-((1R,3R)-3-hydroxycyclohexyl)-2′-((3-(tetrahydro-2H-pyran-2-yl)-1H-pyrazol-4-yl)amino)spiro[cyclopropane-1,5′-pyrrolo[2,3-d]pyrimidin]-6′(7′H)-one] | 1220 nM | ≥ 10000 nM | ≥ 10000 nM | ≥ 10000 nM
O=C1N([C@@H]2CCC[C@@H](O)C2)c2nc(Nc3c[nH]nc3OC3CC3)ncc2C12CC2 [Example 55] | 11 nM | 1430 nM | 8500 nM | ≥ 10000 nM
COCC(F)(F)COc1n[nH]cc1Nc1ncc2c(n1)N([C@@H]1CCC[C@@H](O)C1)C(=O)C21CC1 [Example 44, 2′-((3-(2,2-difluoro-3-methoxypropoxy)-1H-pyrazol-4-yl)amino)-7′-((1R,3R)-3-hydroxycyclohexyl)spiro[cyclopropane-1,5′-pyrrolo[2,3-d]pyrimidin]-6′(7′H)-one] | 15 nM | 1810 nM | 4410 nM | 7130 nM
O=C1N([C@@H]2CCC[C@@H](O)C2)c2nc(Nc3c[nH]nc3OC[C@H]3CCOC3)ncc2C12CC2 [Example 72, 7′-((1R,3R)-3-hydroxycyclohexyl)-2′-((3-(((S)-tetrahydrofuran-3-yl)methoxy)-1H-pyrazol-4-yl)amino)spiro[cyclopropane-1,5′-pyrrolo[2,3-d]pyrimidin]-6′(7′H)-one] | 61 nM | 7500 nM | ≥ 10000 nM | ≥ 10000 nM
Cc1c(-c2n[nH]cc2Nc2ncc3c(n2)N([C@@H]2CCC[C@@H](O)C2)C(=O)C32CC2)cnn1C [Example 37, 2′-((1′,5′-dimethyl-1H,1′H-[3,4′-bipyrazol]-4-yl)amino)-7′-((1R,3R)-3-hydroxycyclohexyl)spiro[cyclopropane-1,5′-pyrrolo[2,3-d]pyrimidin]-6′(7′H)-one] | 31 nM | ≥ 10000 nM | ≥ 10000 nM | ≥ 10000 nM
O=C1N([C@@H]2CCC[C@@H](O)C2)c2nc(Nc3c[nH]nc3OC3(CF)CC3)ncc2C12CC2 [Example 85, 2′-((3-(1-(fluoromethyl)cyclopropoxy)-1H-pyrazol-4-yl)amino)-7′-((1R,3R)-3-hydroxycyclohexyl)spiro[cyclopropane-1,5′-pyrrolo[2,3-d]pyrimidin]-6′(7′H)-one] | 27 nM | 1710 nM | 4400 nM | ≥ 10000 nM
Cc1c(-c2n[nH]cc2Nc2ncc3c(n2)N([C@@H]2CCC[C@@H](O)C2)C(=O)C32CC2)cnn1C(F)F [Example 62] | 17 nM | 4230 nM | 2300 nM | 1830 nM
O=C1N([C@@H]2CCC[C@@H](O)C2)c2nc(Nc3c[nH]nc3OCC3COCC3(F)F)ncc2C12CC2 (stereo partly drawn) [Example 76, 2′-((3-((4,4-difluorotetrahydrofuran-3-yl)methoxy)-1H-pyrazol-4-yl)amino)-7′-((1R,3R)-3-hydroxycyclohexyl)spiro[cyclopropane-1,5′-pyrrolo[2,3-d]pyrimidin]-6′(7′H)-one] | 32 nM | 3290 nM | 7270 nM | ≥ 10000 nM
COCCn1cc(Nc2ncc3c(n2)N([C@@H]2CCC[C@@H](O)C2)C(=O)C32CC2)cn1 [Example 16, 7′-((1R,3R)-3-hydroxycyclohexyl)-2′-((1-(2-methoxyethyl)-1H-pyrazol-4-yl)amino)spiro[cyclopropane-1,5′-pyrrolo[2,3-d]pyrimidin]-6′(7′H)-one] | 49 nM | 2360 nM | 1230 nM | 1800 nM
O=C1N([C@@H]2CCC[C@@H](O)C2)c2nc(Nc3c[nH]nc3C3CC3)ncc2C12CC2 [Example 14, 2′-((3-cyclopropyl-1H-pyrazol-4-yl)amino)-7′-((1R,3R)-3-hydroxycyclohexyl)spiro[cyclopropane-1,5′-pyrrolo[2,3-d]pyrimidin]-6′(7′H)-one] | 30 nM | 1550 nM | ≥ 10000 nM | ≥ 10000 nM
O=C1N([C@@H]2CCC[C@@H](O)C2)c2nc(Nc3c[nH]nc3OC[C@@H]3CCOC3)ncc2C12CC2 [Example 71, 7′-((1R,3R)-3-hydroxycyclohexyl)-2′-((3-(((R)-tetrahydrofuran-3-yl)methoxy)-1H-pyrazol-4-yl)amino)spiro[cyclopropane-1,5′-pyrrolo[2,3-d]pyrimidin]-6′(7′H)-one] | 44 nM | 7590 nM | ≥ 10000 nM | ≥ 10000 nM
O=C1N([C@@H]2CCC[C@@H](O)C2)c2nc(Nc3c[nH]nc3OC3CN(CC(F)(F)F)C3)ncc2C12CC2 [Example 46, 7′-((1R,3R)-3-hydroxycyclohexyl)-2′-((3-((1-(2,2,2-trifluoroethyl)azetidin-3-yl)oxy)-1H-pyrazol-4-yl)amino)spiro[cyclopropane-1,5′-pyrrolo[2,3-d]pyrimidin]-6′(7′H)-one] | 109 nM | ≥ 10000 nM | ≥ 10000 nM | ≥ 10000 nM
O=C1N([C@@H]2CCC[C@@H](O)C2)c2nc(Nc3c[nH]nc3C(F)(F)F)ncc2C12CC2 [Example 15, 7′-((1R,3R)-3-hydroxycyclohexyl)-2′-((3-(trifluoromethyl)-1H-pyrazol-4-yl)amino)spiro[cyclopropane-1,5′-pyrrolo[2,3-d]pyrimidin]-6′(7′H)-one] | 39 nM | 3720 nM | ≥ 10000 nM | ≥ 10000 nM
O=C1N([C@@H]2CCC[C@@H](O)C2)c2nc(Nc3c[nH]nc3-c3cnn4c3CCCC4)ncc2C12CC2 [Example 73, 7′-((1R,3R)-3-hydroxycyclohexyl)-2′-((3-(4,5,6,7-tetrahydropyrazolo[1,5-a]pyridin-3-yl)-1H-pyrazol-4-yl)amino)spiro[cyclopropane-1,5′-pyrrolo[2,3-d]pyrimidin]-6′(7′H)-one] | 49 nM | ≥ 10000 nM | ≥ 10000 nM | ≥ 10000 nM
O=C1N([C@@H]2CCC[C@@H](O)C2)c2nc(Nc3c[nH]nc3CO)ncc2C12CC2 [Example 6, 7′-((1R,3R)-3-hydroxycyclohexyl)-2′-((3-(hydroxymethyl)-1H-pyrazol-4-yl)amino)spiro[cyclopropane-1,5′-pyrrolo[2,3-d]pyrimidin]-6′(7′H)-one] | 32 nM | 2940 nM | 840 nM | 2180 nM

Reference: US20240360137A1 (Novartis AG, priority 2023, published 2024)
